The record followed here is patent publication US20240246967A1, “AXL COMPOUNDS” (ARCUS BIOSCIENCES, INC., priority 2021, published 2024).

SMILES strings stand for the structures.

This assay deals with T1, human TYRO3 (Homo sapiens, UniProt Q06418).
T1 construct: purchased Invitrogen
T1 sequence (Q06418 41-890): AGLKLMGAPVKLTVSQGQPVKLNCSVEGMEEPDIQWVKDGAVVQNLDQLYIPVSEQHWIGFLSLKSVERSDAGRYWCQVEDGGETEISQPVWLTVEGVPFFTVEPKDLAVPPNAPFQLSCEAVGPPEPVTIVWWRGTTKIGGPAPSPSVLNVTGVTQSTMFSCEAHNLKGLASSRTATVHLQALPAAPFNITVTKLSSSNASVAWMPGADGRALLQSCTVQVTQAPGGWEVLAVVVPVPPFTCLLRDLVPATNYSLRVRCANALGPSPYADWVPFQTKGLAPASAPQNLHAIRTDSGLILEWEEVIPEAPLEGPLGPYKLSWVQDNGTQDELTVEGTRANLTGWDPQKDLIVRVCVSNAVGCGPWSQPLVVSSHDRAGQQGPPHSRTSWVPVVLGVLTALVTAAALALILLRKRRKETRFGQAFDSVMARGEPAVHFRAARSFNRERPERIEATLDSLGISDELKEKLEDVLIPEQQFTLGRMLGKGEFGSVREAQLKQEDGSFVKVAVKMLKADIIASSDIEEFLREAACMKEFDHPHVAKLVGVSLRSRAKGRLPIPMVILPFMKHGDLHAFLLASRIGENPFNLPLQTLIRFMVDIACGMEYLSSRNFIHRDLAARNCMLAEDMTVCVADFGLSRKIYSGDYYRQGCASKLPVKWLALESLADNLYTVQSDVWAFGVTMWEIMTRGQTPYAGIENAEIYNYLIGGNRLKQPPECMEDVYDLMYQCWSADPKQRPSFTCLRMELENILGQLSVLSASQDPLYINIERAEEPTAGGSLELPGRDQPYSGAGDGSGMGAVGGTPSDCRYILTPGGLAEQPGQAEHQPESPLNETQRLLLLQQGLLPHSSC
As to the kind of experiment: HTRF KinEASE-TK biochemical potency assay, TYRO3. Particulars: 1 nM TYRO3, 700 μM ATP, 800 nM TK Substrate-biotin. As to the method: Purified recombinant human AXL, TYRO3 and MER proteins were purchased from Invitrogen™. 10 nM AXL, 2 nM TYRO3 or MER were incubated with varying concentrations of compounds in 50 mM HEPES, pH 7.4, 10 mM MgCl2, 0.01% BSA, 1 mM DTT and 2% DMSO in a total volume of 20 μl in a 384-well microplate (Corning™ #3640) at RT for 1 h. The AXL, TYRO3 and MER enzymatic reaction was initiated by transferring 10 μl of enzyme and compound mixture into 10 μl of 1.6 μM TK Substrate-biotin (HTRF® KinEASE-TK kit, Cisbio) and 1400 μM ATP pre-incubated in 50 mM HEPES, pH 7.4, 10 mM MgCl2, 0.01% BSA, 1 mM DTT in a 384-well microplate (Corning™ #3640) at RT, giving the final reaction conditions: 5 nM AXL, 1 nM TYRO3 or MER, 800 nM TK Substrate-biotin and 700 μM ATP in 50 mM HEPES, pH 7.4, 10 mM MgCl2, 0.01% BSA, 1 mM DTT and 1% DMSO with varying concentrations of compounds. Following 2 h incubation at RT, the AXL, TYRO3 and MER enzymatic reaction was stopped by transfer of 10 μl of reaction into 10 μl of detection mix (400 nM Streptavidin-XL665, 200-fold dilution TK Antibody-Cryptate and detection buffer, HTRF® KinEASE-TK kit, Cisbio) in a white 384-well microplate (Perkin Elmer, OptiPlate 384). After 1 h incubation at RT, the plate was put into a plate reader (Evision) to read at 665/620 nm (acceptor/donor) for HTRF. The value of the DMSO blank (MIN inhibition=100% activity) was used as a negative control. The positive control was established by adding 5 μl of enzyme and DMSO mixture into 10 μl of detection mix followed by addition of 5 μl of TK Substrate-biotin and ATP mixture (MAX inhibition=0% activity). To calculate the percent activity, Equation 1 was used. Ratio 665/620 is the value at a given compound concentration: […]
(In general: In TR-FRET formats the signal depends on donor and acceptor labels being close together.)
On to `C[C@@H]1CCCN1C1(C)CCc2ccc(-c3cnc4[nH]nc(-c5ccc(S(=O)(=O)C6CC6)c(F)c5)c4c3)cc2CC1` (stereo partly drawn) [Example 25, (2R)-1-(2-{3-[4-(Cyclopropanesulfonyl)-3-fluorophenyl]-1H-pyrazolo[3,4-b]pyridin-5-yl}-7-methyl-6,7,8,9-tetrahydro-5H-benzo[7]annulen-7-yl)-2-methylpyrrolidine], for which the IC50 (in general, the concentration that gives 50% inhibition) was less than 100 nM.

The compound `CC(C)S(=O)(=O)c1ccc(-c2n[nH]c3ncc(-c4ccc5c(c4)CC[C@@H](N4CCCC4)CC5)cc23)cc1` [Example 42, (S)-3-(4-(Isopropylsulfonyl)phenyl)-5-(7-(pyrrolidin-1-yl)-6,7,8,9-tetrahydro-5H-benzo[7]annulen-2-yl)-1H-pyrazolo[3,4-b]pyridine] displayed an IC50 of less than 100 nM.

Turning to `C[C@@H]1CCCN1C1CCc2ccc(-c3cnc4[nH]nc(-c5ccc(S(N)(=O)=O)c(Cl)c5)c4c3)cc2CC1` (stereo partly drawn) [Example 94, 2-Chloro-4-(5-(7-((R)-2-methylpyrrolidin-1-yl)-6,7,8,9-tetrahydro-5H-benzo[7]annulen-2-yl)-1H-pyrazolo[3,4-b]pyridin-3-yl)benzenesulfonamide], the 50% inhibitory concentration (IC50) is less than 100 nM.

For the compound `C[C@@H]1CCCN1C1(C)CCc2ccc(-c3cnc4[nH]nc(-c5ccc(S(=O)(=O)C6CCCC6)cc5)c4c3)cc2CC1` (stereo partly drawn) [Example 45, 3-(4-(Cyclopentylsulfonyl)phenyl)-5-(7-methyl-7-((R)-2-methylpyrrolidin-1-yl)-6,7,8,9-tetrahydro-5H-benzo[7]annulen-2-yl)-1H-pyrazolo[3,4-b]pyridine], the IC50 lay within 100 to 1000 nM.

For the compound `CC1(N[C@H]2CCOC2)CCc2ccc(-c3cnc4[nH]nc(-c5ccc(S(=O)(=O)C6CC6)cc5)c4c3)cc2CC1` (stereo partly drawn) [Example 115, (3S)-N-(2-{3-[4-(Cyclopropanesulfonyl)phenyl]-1H-pyrazolo[3,4-b]pyridin-5-yl}-7-methyl-6,7,8,9-tetrahydro-5H-benzo[7]annulen-7-yl)oxolan-3-amine], the half-inhibitory concentration (IC50) is 100 to 1000 nM.

Take `Cc1cc(-c2n[nH]c3ncc(-c4ccc5c(c4)CC[C@@H](N4CCCC4)CC5)cc23)cc(C)c1C(N)=O` [Example 49, 2,6-Dimethyl-4-{5-[(7S)-7-(pyrrolidin-1-yl)-6,7,8,9-tetrahydro-5H-benzo[7]annulen-2-yl]-1H-pyrazolo[3,4-b]pyridin-3-yl}benzamide]: the concentration for half-maximal inhibition (IC50) was less than 100 nM.

Compound `c1cc2c(cc1-c1cnc3[nH]nc(-c4ccc(N5C[C@H]6C[C@@H]5CO6)cc4)c3c1)CC[C@@H](N1C3COCC1C3)CC2` [Example 126, (1R,4R)-5-(4-{5-[(7S)-7-{3-oxa-6-azabicyclo[3.1.1]heptan-6-yl}-6,7,8,9-tetrahydro-5H-benzo[7]annulen-2-yl]-2H-pyrazolo[3,4-b]pyridin-3-yl}phenyl)-2-oxa-5-azabicyclo[2.2.1]heptane] had a half-inhibitory concentration (IC50) greater than 1000 nM.

The compound `C[C@@H]1CCCN1C1(C)CCc2ccc(-c3cnc4[nH]nc(-c5ccc(C(=O)N6CCCC6)cc5)c4c3)cc2CC1` (stereo partly drawn) [Example 118, (2R)-2-Methyl-1-(7-methyl-2-{3-[4-(pyrrolidine-1-carbonyl)phenyl]-1H-pyrazolo[3,4-b]pyridin-5-yl}-6,7,8,9-tetrahydro-5H-benzo[7]annulen-7-yl)pyrrolidine] registered an IC50 greater than 1000 nM.

As to `CCS(=O)(=O)c1ccc(-c2n[nH]c3ncc(-c4ccc5c(c4)CC[C@@H](N4CCCC4)CC5)cc23)cc1` [Example 41, (S)-3-(4-(Ethylsulfonyl)phenyl)-5-(7-(pyrrolidin-1-yl)-6,7,8,9-tetrahydro-5H-benzo[7]annulen-2-yl)-1H-pyrazolo[3,4-b]pyridine], the half-maximal inhibitory concentration (IC50) is less than 100 nM.

As for `CS(=O)(=O)c1ccc(-c2n[nH]c3ncc(-c4ccc5c(c4)CCN(C4CCCC4)CC5)cc23)cc1` [Example 30, 3-Cyclopentyl-7-(3-(4-(methylsulfonyl)phenyl)-1H-pyrazolo[3,4-b]pyridin-5-yl)-2,3,4,5-tetrahydro-1H-benzo[d]azepine], the IC50 is less than 100 nM.

In turn, `Cc1cc(-c2n[nH]c3ncc(-c4ccc5c(c4)CC[C@@H](N4CCCC4)CC5)cc23)cc(C)c1C(=O)N1CCNCC1` [Example 55, 1-(2,6-Dimethyl-4-{5-[(7S)-7-(pyrrolidin-1-yl)-6,7,8,9-tetrahydro-5H-benzo[7]annulen-2-yl]-1H-pyrazolo[3,4-b]pyridin-3-yl}benzoyl)piperazine] had an IC50 of less than 100 nM.

For the compound `C[C@@H]1CCCN1C1CCc2ccc(-c3cnc4[nH]nc(-c5ccc(S(=O)(=O)C6CC6)cc5)c4c3)cc2C(C)(C)C1` (stereo partly drawn) [Example 109, (2R)-1-(2-{3-[4-(Cyclopropanesulfonyl)phenyl]-1H-pyrazolo[3,4-b]pyridin-5-yl}-9,9-dimethyl-6,7,8,9-tetrahydro-5H-benzo[7]annulen-7-yl)-2-methylpyrrolidine], the IC50 is 100 to 1000 nM.

The compound `C[C@@H]1CCCN1C1(C)CCc2ccc(-c3cnc4[nH]cc(-c5ccc(S(=O)(=O)C6CC6)cc5)c4c3)cc2CC1` (stereo partly drawn) [Example 105, (2R)-1-(2-{3-[4-(Cyclopropanesulfonyl)phenyl]-1H-pyrrolo[2,3-b]pyridin-5-yl}-7-methyl-6,7,8,9-tetrahydro-5H-benzo[7]annulen-7-yl)-2-methylpyrrolidine] displayed an IC50 of 100 to 1000 nM.

`COc1cc(-c2n[nH]c3ncc(-c4ccc5c(c4)CCC(C)(N4CCC[C@H]4C)CC5)cc23)ccc1C(N)=O` (stereo partly drawn) [Example 53, 2-Methoxy-4-(5-(7-methyl-7-((R)-2-methylpyrrolidin-1-yl)-6,7,8,9-tetrahydro-5H-benzo[7]annulen-2-yl)-1H-pyrazolo[3,4-b]pyridin-3-yl)benzamide] came in with an IC50 of less than 100 nM.

With `O=C1OCCN1c1ccc(-c2n[nH]c3ncc(-c4ccc5c(c4)CC[C@@H](N4C6COCC4C6)CC5)cc23)cc1` [Example 121, 3-(4-{5-[(7S)-7-{3-oxa-6-azabicyclo[3.1.1]heptan-6-yl}-6,7,8,9-tetrahydro-5H-benzo[7]annulen-2-yl]-2H-pyrazolo[3,4-b]pyridin-3-yl}phenyl)-1,3-oxazolidin-2-one], the IC50 is 100 to 1000 nM.

`CCS(=N)(=O)c1ccc(-c2n[nH]c3ncc(-c4ccc5c(c4)CCC(C)(N4CCC[C@H]4C)CC5)cc23)cc1` (stereo partly drawn) [Example 100, Ethyl(imino)[4-(5-{7-methyl-7-[(2R)-2-methylpyrrolidin-1-yl]-6,7,8,9-tetrahydro-5H-benzo[7]annulen-2-yl}-1H-pyrazolo[3,4-b]pyridin-3-yl)phenyl]-λ^6-sulfanone] returned a half-maximal inhibitory concentration (IC50) of 100 to 1000 nM.

Regarding `Cc1cc(-c2n[nH]c3ncc(-c4ccc5c(c4)CC[C@@H](N4CCCC4)CC5)cc23)cc(Cl)c1C(=O)N1CCNCC1` [Example 56, 1-(2-Chloro-6-methyl-4-{5-[(7S)-7-(pyrrolidin-1-yl)-6,7,8,9-tetrahydro-5H-benzo[7]annulen-2-yl]-1H-pyrazolo[3,4-b]pyridin-3-yl}benzoyl)piperazine], the IC50 is less than 100 nM.

`CC(C)(C)S(=O)(=O)c1ccc(-c2n[nH]c3ncc(-c4ccc5c(c4)CC[C@@H](N4C6COCC4C6)CC5)cc23)cc1` [Example 124, 6-[(7S)-2-{3-[4-(2-methylpropane-2-sulfonyl)phenyl]-2H-pyrazolo[3,4-b]pyridin-5-yl}-6,7,8,9-tetrahydro-5H-benzo[7]annulen-7-yl]-3-oxa-6-azabicyclo[3.1.1]heptane] gave an IC50 of 100 to 1000 nM.
